Assay results: US11197863B2, “Inhibitors of polo-like kinase 4 (PLK4) for treating pediatric embryonal tumors” (ANN AND ROBERT H. LURIE CHILDREN'S HOSPITAL OF CHICAGO, priority 2017, dated 2021)

Columns and labels:
[1] = test system: MON, G401, BT-12, and BT-16 cells; assay: MTT cell proliferation assay, rhabdoid tumor cell lines; assay type: cell-based, human; settings: all cell lines evaluated; 10-500 nM, 48 and 72 hr
Experimental: The expression of PLK4 (Hs00179514_m1) was verified by TaqMan GE assays (Thermo Fisher Scientific, USA) using the housekeeping gene GAPDH (Hs02758991_g1) as reference as previously described.[30] PLK4 inhibitor. […] Cell proliferation was evaluated by MTT assay and cell survival was evaluated by clonogenic assays using increasing concentrations of the drug in different time-points, as described below.
(§1) To evaluate cell proliferation, we used TACS MTT Cell Proliferation Assays (Trevigen, USA). We plated 2×10^3 cells on each well of a 96-well plate and the absorbance was measured after 48 and 72 hr at concentrations of 10, 50, 100, 200, and 500 nM. Each experiment was performed in triplicates.

breast cancer cells = settings: Sampson et al.; cited from earlier work
MUSK = MUSK (Homo sapiens, UniProt O15146); assay: Kinase activity screening (SelectScreen Kinase Profiling); assay type: biochemical; settings: 10-point titration
Chain of MUSK (O15146 24-869): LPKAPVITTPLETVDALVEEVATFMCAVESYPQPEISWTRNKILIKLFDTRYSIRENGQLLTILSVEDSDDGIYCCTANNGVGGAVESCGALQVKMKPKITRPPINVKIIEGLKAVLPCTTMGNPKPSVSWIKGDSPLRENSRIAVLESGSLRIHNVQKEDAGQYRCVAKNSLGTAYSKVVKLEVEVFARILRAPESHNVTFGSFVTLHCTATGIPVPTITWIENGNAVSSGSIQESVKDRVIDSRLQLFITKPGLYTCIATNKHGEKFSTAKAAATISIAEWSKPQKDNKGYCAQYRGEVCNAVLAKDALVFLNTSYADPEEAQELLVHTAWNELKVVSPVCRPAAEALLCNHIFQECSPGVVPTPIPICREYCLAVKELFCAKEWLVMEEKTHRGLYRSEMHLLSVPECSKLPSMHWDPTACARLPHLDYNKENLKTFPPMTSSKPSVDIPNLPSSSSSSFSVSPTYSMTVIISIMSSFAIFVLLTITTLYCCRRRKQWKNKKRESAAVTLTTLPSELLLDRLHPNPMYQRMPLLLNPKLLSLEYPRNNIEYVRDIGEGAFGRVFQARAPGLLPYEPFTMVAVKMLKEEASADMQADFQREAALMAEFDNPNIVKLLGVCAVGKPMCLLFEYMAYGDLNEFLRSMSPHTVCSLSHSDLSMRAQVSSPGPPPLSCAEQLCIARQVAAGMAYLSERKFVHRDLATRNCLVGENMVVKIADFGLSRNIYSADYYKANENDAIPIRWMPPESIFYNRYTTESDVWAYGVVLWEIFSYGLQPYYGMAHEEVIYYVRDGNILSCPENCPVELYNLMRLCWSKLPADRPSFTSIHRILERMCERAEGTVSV
Description: (§3) These assays utilized various formats appropriate to the kinase, its substrate and its activity. Formats included the Z-LYTE™ Kinase Assay that determines the differential sensitivity of phosphorylated and non-phosphorylated peptide substrates to proteolytic cleavage using a FRET-based readout, the Adapta™ Universal Kinase Assay that employs a homogeneous, fluorescence-based immunoassay for the detection of ADP produced by kinases and the LanthaScreen™ Eu Kinase Binding Assay that utilizes an Alexa Fluor™ conjugated “tracer” and an Eu-labeled anti-tag antibody to measure binding of a compound to the kinase target [62].

TEK = TEK (Homo sapiens, UniProt Q02763); assay: as above; assay type: biochemical; settings: 10-point titration
Chain of TEK (Q02763 23-1124): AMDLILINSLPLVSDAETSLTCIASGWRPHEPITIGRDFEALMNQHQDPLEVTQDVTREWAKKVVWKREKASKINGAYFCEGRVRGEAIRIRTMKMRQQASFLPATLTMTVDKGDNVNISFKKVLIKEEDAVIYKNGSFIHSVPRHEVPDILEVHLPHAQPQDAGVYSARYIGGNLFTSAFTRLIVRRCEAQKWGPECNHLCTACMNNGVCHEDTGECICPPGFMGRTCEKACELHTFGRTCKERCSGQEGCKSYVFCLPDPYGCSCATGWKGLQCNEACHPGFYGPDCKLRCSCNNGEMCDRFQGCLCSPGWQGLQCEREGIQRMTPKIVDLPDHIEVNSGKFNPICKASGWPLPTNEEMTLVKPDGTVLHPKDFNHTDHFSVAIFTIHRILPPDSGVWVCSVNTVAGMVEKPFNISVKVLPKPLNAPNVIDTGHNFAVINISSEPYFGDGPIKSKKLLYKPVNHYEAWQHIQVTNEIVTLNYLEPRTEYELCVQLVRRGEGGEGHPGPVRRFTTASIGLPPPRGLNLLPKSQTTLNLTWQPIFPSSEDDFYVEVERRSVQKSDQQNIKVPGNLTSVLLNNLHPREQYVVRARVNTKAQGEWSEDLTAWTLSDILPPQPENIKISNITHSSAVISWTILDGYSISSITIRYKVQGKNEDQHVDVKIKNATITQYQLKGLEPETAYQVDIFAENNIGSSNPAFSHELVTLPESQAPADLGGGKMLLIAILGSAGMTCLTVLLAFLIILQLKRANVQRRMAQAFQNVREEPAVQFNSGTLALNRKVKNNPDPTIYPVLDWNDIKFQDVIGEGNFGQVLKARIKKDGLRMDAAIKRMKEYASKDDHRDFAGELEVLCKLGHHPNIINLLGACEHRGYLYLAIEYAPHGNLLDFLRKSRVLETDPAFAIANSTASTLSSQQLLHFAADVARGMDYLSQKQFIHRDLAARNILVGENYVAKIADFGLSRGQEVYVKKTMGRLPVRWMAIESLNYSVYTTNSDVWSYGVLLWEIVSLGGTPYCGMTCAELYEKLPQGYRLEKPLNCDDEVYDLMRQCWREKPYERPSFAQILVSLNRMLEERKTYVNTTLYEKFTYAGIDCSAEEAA
Description: as §3

MON cells = assay: Time-lapse assay, nuclear area and volume; assay type: cell-based, human; settings: 100 nM, 48 hours, p-value<0.001
Experimental: Cells were plated in 35 mm glass bottom dishes (Cat #150682, Thermo Fisher Scientific, USA) in normal growth medium and allowed to grow overnight. After the treatment medium was added, imaging began immediately. Brightfield images (20×) were taken every 6 minutes at 10 predetermine fields for 48 hours. Images were processed in ZEN 2.3 software (Zeiss, USA).

[2] = test system: HFF-SCC058 non-neoplastic human fibroblast cells; assay: Immunofluorescence for gamma-tubulin (centriole number); assay type: cell-based; settings: 100 and 500 nM
Experimental: The cells were then blocked in blocking buffer (5% BSA (Jackson Immuno Research Laboratories Inc., USA) in PBST) for 1 hour at RT. The primary antibody ([…] 1:500, Sigma, USA) diluted in 1% BSA in PBST was then added and incubated at 4° C. overnight. Then, the cells were washed with 1×PBS thrice. Secondary antibody (Anti-Rabbit IgG (H+L) F (ab′) 2, 1:500, Sigma, USA) diluted in 1% BSA in PBST was added and incubated at RT for 2 hours. Three time washes with IX PBS were performed. Then, 1 mL of DAPI (Thermo Fisher Scientific, USA) in PBS (0.5 μl of DAPI in 10 ml PBS) was added to the cells and incubated for 10 min at RT. Finally, 3 time washes with 1×PBS were performed and slides were mounted using Mounting Medium (Thermo Fisher Scientific, USA).

DAOY and D283 cells [3] = assay: MTT proliferation assay, MB cell lines; assay type: cell-based, human; settings: 72 hours of treatment vs 0.1% DMSO
Experimental: as §1
(§2) For proliferation assay DAOY was plated with 5×10^4 cells per well and D283 was plated with 5×10^5 cells per well.

normal breast cells = settings: Sampson et al.; cited from earlier work
[4] = test system: PLK4 mRNA in MON rhabdoid cells; assay: qPCR for PLK4 expression; assay type: cell-based, human; settings: 10, 50, 100 and 500 nM for 24, 48 and 72 hours vs 0.1% DMSO
Experimental: The expression of PLK4 (Hs00179514_m1) in each cell line was verified by TaqMan GE assays (Thermo Fisher Scientific, USA) using the housekeeping gene GAPDH (Hs02758991_g1) as reference. Total RNA (2 μg) was used to make cDNA using the Applied Biosystems High Capacity RNA-to-cDNA kit (Thermo Fisher Scientific). Reactions were performed in triplicate with adequate positive and negative controls. The normalized expression levels were calculated by […] method using the housekeeping gene and a pool of all samples as calibrator.

DAOY and D283 cells [5] = assay: Colony formation assay, MB cell lines; assay type: cell-based, human; settings: 50 nM
Experimental: For each cell line, 200 cells were seeded into six-well plates, incubated for 14 days, fixed with formalin, stained with Cresyl violet (ACROS Organics, USA), and the number of colonies counted using Image J software (www.imagej.nih.gov).
as §2

[6] = test system: HFF-SCC058 human fibroblasts; assay: Cell cycle analysis by flow cytometry (polyploidy); assay type: cell-based
Experimental: Cell cycle evaluation was performed by staining the cells with PI (Thermo Fisher Scientific, USA) according to manufacturer's instructions. […] Data was analyzed using Modfit LT from Verity Software House. Experiments were performed in triplicates.

[7] = phase I, adults, preliminary results; cited from earlier work
zebrafish larvae = assay: In vivo toxicity assay in zebrafish larvae
Experimental: Control larvae were exposed to 2% DMSO. Survival and delays in development and morphologic abnormalities were recorded at three time-points (24, 48, and 72 h of treatment). For each condition, groups of 20 larvae were analyzed in triplicates totalizing 420 subjects and 60 controls. Two-way ANOVA was used to analyze the results.

[8] = test system: MON, G401, BT-12, BT-16 DAOY and D283 cells; assay: Senescence beta galactosidase assay; assay type: cell-based, human; settings: 100 nM, 48 hours; all cell lines
Experimental: For each cell line, cells were seeded in 6-well plates in triplicates with 100,000 cells per well. Treatment medium was added the next day and incubated for 48 or 72 hrs. After incubation, cells were washed twice with 1×PBS and 1 mL of the Fixation Buffer from the kit was added to each well of the plate and incubated at RT for 5 min. Cells were washed with 1×PBS and 1 mL of staining solution from the kit was added to each well and incubated at 37° C. without CO2 overnight. The next day, the cells were washed with 1×PBS and the numbers of blue stained cells (which indicate senescent cells) and unstained cells were counted in image J (www.imagej.nih.gov). The percentage of senescent cells was calculated.

[9] = test system: AURKA or other PLK family members; settings: cited from earlier work
AURKC = AURKC (Homo sapiens, UniProt Q9UQB9); assay: Kinase activity screening (SelectScreen Kinase Profiling); assay type: biochemical; settings: read-out: kinase activity inhibited
Chain of AURKC (Q9UQB9 whole entry): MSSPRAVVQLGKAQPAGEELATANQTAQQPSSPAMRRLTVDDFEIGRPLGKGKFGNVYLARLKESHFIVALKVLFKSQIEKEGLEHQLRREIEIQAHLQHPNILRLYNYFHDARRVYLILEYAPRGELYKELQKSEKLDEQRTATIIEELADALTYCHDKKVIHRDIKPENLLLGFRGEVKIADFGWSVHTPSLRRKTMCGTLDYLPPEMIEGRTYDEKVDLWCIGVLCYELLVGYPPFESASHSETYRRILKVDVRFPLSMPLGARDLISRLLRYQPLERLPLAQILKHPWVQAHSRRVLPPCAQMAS
Description: as §3

What does the source list for `COc1ccc2c(c1)[C@]1(C[C@H]1c1ccc3c(/C=C/c4ccc(CN5C[C@@H](C)O[C@@H](C)C5)cc4)n[nH]c3c1)C(=O)N2` [CFI-400945]?
cell proliferation (MTT) [1]: significant reduction of cell proliferation; effect on breast cancer cells (breast cancer cells): cell death; IC50 (MUSK): 48.7 nM; IC50 (TEK): 109 nM; nuclear area (FC) (MON cells): 2.79; nuclear volume (FC) (MON cells): 4.69; paradoxical effect on centriole number [2]: not observed; cell proliferation (MTT) (DAOY and D283 cells [3]): significantly decreased proliferation; effect on normal breast cells (normal breast cells): unaffected; PLK4 expression (qPCR) [4]: time dependent decrease in PLK4 expression; colony formation (DAOY and D283 cells [5]): Complete inhibition of colony formation; polyploidy [6]: not affecting; tolerability [7]: well tolerated at doses up to 72 ma; larvae deaths (zebrafish larvae; 10 nM to 20 μM for 3 days, over 400 larvae): no increase in larvae deaths; morphologic abnormalities (zebrafish larvae; extremely high concentrations (10 and 20 μM)): edema and body curvature were consistently observed; senescent cells [8]: significant increase of senescent cells; inhibition of AURKA or other PLK family members [9]: no significant inhibition; inhibition at 0.5 µM (AURKC): 84%
